Earlier results as cited in patent publication US7446222B2, “Phenyl compounds” (Glaxo Group Limited, priority 2002, dated 2008).

What was measured:
[1] = molecular target: T1, human EP1 prostanoid receptor (Homo sapiens, UniProt P34995); details: human EP1 prostanoid receptor ligand
T1 sequence (P34995 1-402): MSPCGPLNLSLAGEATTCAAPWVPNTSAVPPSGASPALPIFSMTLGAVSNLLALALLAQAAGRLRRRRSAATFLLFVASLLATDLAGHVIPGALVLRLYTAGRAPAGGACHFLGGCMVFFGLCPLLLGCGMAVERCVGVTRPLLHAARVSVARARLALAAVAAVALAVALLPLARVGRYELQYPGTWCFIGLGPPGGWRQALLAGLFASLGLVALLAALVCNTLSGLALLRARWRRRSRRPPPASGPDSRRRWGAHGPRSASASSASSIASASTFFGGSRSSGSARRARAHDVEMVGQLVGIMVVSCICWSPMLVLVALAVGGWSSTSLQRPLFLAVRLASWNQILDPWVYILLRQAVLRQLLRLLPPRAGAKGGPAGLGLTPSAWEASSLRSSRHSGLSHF

[2] = test system: rodent model of post-operative pain
[3] = test system: rat model of chronic constriction injury

Row | Compound | potency compared with the comparable 2,3-diarylthiophene compound [1] | selectivity compared with the comparable 2,3-diarylthiophene compound [1] | effect on mechanical hyperalgesia [2] | effect on hyperalgesia and allodynia [3]
1 | O=C(O)c1ccc(-c2ccccc2-c2ccccc2OCc2ccccc2)cc1 [2-benzyloxy[1,1′;2′,1″]terphenyl-4″-carboxylic acid] | less potent | less selective | – | –
2 | Cc1cc(Cl)ccc1S(=O)(=O)NC[C@H]1C2CCC(CC2)[C@@H]1/C=C\CCCC(=O)O [ONO-8711] | – | – | inhibits mechanical hyperalgesia | reduces hyperalgesia and allodynia
